For orientation: IC50 means the concentration that gives 50% inhibition. Low values mean inhibition by little substance, high ones a need for much substance. By solubility (kinetic) is commonly meant solubility judged after dilution from a stock solution rather than from solid. The term logD denotes the decadic logarithm of the distribution of all forms, ionised or not, between an organic phase and buffer at a given pH. As a reminder, the Papp A→B is the apparent permeability from the apical to the basolateral side of a cell layer. A higher Papp A→B goes with ready permeation. The term efflux ratio denotes the permeability from basolateral to apical divided by that in the opposite direction, in the common usage. The microsomal CLint is the capacity of the preparation to metabolise the compound, expressed as a volume cleared per time. A high value points to rapid turnover.

In one data set the target is T1, Ketohexokinase (Homo sapiens, UniProt P50053).
T1 sequence (P50053 whole entry): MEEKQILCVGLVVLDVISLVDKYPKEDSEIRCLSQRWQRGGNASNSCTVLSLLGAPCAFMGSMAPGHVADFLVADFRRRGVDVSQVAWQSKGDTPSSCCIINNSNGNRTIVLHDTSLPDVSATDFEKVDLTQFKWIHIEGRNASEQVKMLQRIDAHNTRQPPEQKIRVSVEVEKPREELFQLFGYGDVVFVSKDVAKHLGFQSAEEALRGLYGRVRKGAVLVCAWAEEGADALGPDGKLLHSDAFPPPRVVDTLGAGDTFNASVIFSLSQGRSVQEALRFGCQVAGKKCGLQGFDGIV

Data set [1] in a line: physchem.
A short description of data set [2]: physchem. To be noted: buffer, pH 7.4.
Data set [3] in a line: in vitro. The note with it: human, Caco-2.
Data set [4] can be described thus: in vitro. To be noted: human, Caco-2. This is another data set of the same source.
Data set [5] in a line: in vitro. To be noted: rat, liver microsomes.
Data set [6] in a line: in vitro. To be noted: human, liver microsomes. In general terms: Liver microsomes are vesicles of endoplasmic reticulum, rich in cytochrome P450 enzymes.
Data set [7] is described as follows: in vitro. To be noted: dog, liver microsomes.

Molecules are shown by their SMILES. Converted amounts (≈) assume the structure as drawn. A value given as a limit tells only on which side of the number the result lay.

In the case of `C[C@H]1CCN1c1nc(N2CC(CC(=O)O)C(F)(F)C2)cc(C(F)(F)F)c1C#N` (some centres not stated), the IC50 on Ketohexokinase worked out at 108 nM. For the same molecule, in “physchem [1]”, the solubility (kinetic) was > 1000 µM. For the same molecule, in “physchem [2]”, the log distribution coefficient (logD) was 1.48. Moreover, the Papp A→B at 2 h, 10 µM in the data set “in vitro [3]” was determined as 10.9 ×10⁻⁶ cm/s. Also, the efflux ratio in “in vitro [4]” came to 2.48.
In the same order, the values of `C[C@H]1CCN1c1nc(N2C[C@H]3CC[C@H](C(=O)O)[C@H]3C2)c2c(n1)C(F)(F)CC2` (racemic) are 34.7 nM, > 1000 µM, 0.58, 6.13 ×10⁻⁶ cm/s and 4.54.
`O=C(O)CC[C@H]1CCN(c2nc(N3CC[C@@H]3C(F)(F)F)nc3c2CCC3(F)F)C1` had an IC50 on Ketohexokinase of 25.9 nM. Further, the solubility (kinetic) in the data set “physchem [1]” was > 1000 µM. The same molecule had a logD in the data set “physchem [2]” of 0.86. In addition, the Papp A→B at 2 h, 10 µM in the data set “in vitro [3]” is 5.14 ×10⁻⁶ cm/s. Besides, the efflux ratio in the data set “in vitro [4]” worked out at 7.81. Besides, the microsomal CLint at 2 h, 1 µM in “in vitro [5]” was 64.6 µL/min/mg.
The molecule `C[C@H]1CCN1c1nc(N2CC[C@H](CC(=O)O)C2)c2c(n1)C(F)(F)CC2` yielded an IC50 at Ketohexokinase of 49 nM. Further, the kinetic solubility in the data set “physchem [1]” was 999 µM (≈ 352 µg/mL). For the same molecule, in the data set “physchem [2]”, the logD turned out to be 0.01. Further, the Papp A→B at 2 h, 10 µM in the data set “in vitro [3]” amounted to 1.47 ×10⁻⁶ cm/s. Also, in the data set “in vitro [4]”, the efflux ratio was determined as 11.2.
Turning to `C[C@H]1CCN1c1nc(N2CCC(C)(CC(=O)O)C2)cc(C(F)(F)F)c1C#N` (some centres not stated), the Kinetic_solubility entry was “Not Determined(Insoluble)”. Besides, the IC50 on Ketohexokinase was > 1000 nM.
At Ketohexokinase, `C[C@H]1CCN1c1nc(N2CC[C@H](OCC(=O)O)C2)c2c(n1)C(F)(F)CC2` yielded an IC50 of 53.9 nM. In “physchem [1]”, the kinetic solubility is > 1000 µM. In the data set “physchem [2]”, the logD was -1.1. Moreover, in “in vitro [3]”, the Papp A→B at 2 h, 10 µM was 0.23 ×10⁻⁶ cm/s. The efflux ratio in “in vitro [4]” came to 19.9.
For `C[C@H]1CCN1c1nc(N2CC[C@H](CCC(=O)O)C2)cc(C(F)(F)F)n1`, the Kinetic_solubility result is reported as “Not Determined(Insoluble)”. Besides, it took 849 nM to reach half-maximal inhibition against Ketohexokinase (IC50).
Turning to `C[C@H]1CCN1c1nc(N2C[C@H]3CC[C@H](C(=O)O)[C@H]3C2)cc(C(F)(F)F)c1C#N` (racemic), on Ketohexokinase, 21.9 nM corresponded to half-maximal inhibition (IC50). This molecule registered a kinetic solubility in “physchem [1]” of 230 µM (≈ 90.5 µg/mL). This molecule had a logD in “physchem [2]” of 2.31. In “in vitro [3]”, the Papp A→B at 2 h, 10 µM worked out at 18.3 ×10⁻⁶ cm/s. The efflux ratio in the data set “in vitro [4]” came out at 1.13. The microsomal CLint at 2 h, 1 µM in the data set “in vitro [6]” is 10.4 µL/min/mg.
For the molecule `C[C@H]1CCN1c1nc(N2CCC3(CC3C(=O)O)C2)cc(C(F)(F)F)n1` (some centres not stated), the Kinetic_solubility result is listed as “Not Determined(Insoluble)”. Also, on Ketohexokinase, the IC50 is > 1000 nM.
Regarding `C[C@H]1CCN1c1nc(N2C[C@@H](CC(=O)O)[C@H](O)C2)cc(C(F)(F)F)c1C#N` (racemic), 138 nM corresponded to half-maximal inhibition against Ketohexokinase (IC50). The molecule further displayed a solubility (kinetic) in the data set “physchem [1]” of 889 µM (≈ 342 µg/mL). In “physchem [2]”, the pH-dependent lipophilicity (logD) came to 0.93. The Papp A→B at 2 h, 10 µM in the data set “in vitro [3]” was 0.09 ×10⁻⁶ cm/s. Moreover, in “in vitro [4]”, the efflux ratio came to 218.
For `C[C@H]1CCN1c1nc(N2CC[C@H](CCC(=O)O)C2)c2c(n1)C(F)(F)CCC2`, the Kinetic_solubility result was “Not Determined(Insoluble)”. The molecule also gave an IC50 at Ketohexokinase of 89.5 nM.
In the case of `O=C(O)CC[C@H]1CCN(c2nc(N3CC4CCCC43)nc3c2CCC3(F)F)C1` (some centres not stated), the Kinetic_solubility result is “Not Determined(Insoluble)”. Further, the IC50 at Ketohexokinase was > 1000 nM.
With `C[C@H]1CCN1c1nc(N2CCC3(CC(C(=O)O)C3)C2)cc(C(F)(F)F)c1C#N` (some centres not stated), the microsomal CLint at 2 h, 1 µM stood at 4.5 µL/min/mg in “in vitro [5]”, 5.5 µL/min/mg in “in vitro [7]” and 6.2 µL/min/mg in the data set “in vitro [6]”.
`C[C@H]1CCN1c1nc(N2CCC3(CC3C(=O)O)C2)cc(C(F)(F)F)c1C#N` (some centres not stated) had a half-maximal inhibitory concentration (IC50) against Ketohexokinase of 108 nM. Besides, in the data set “physchem [1]”, the solubility (kinetic) was > 1000 µM. Besides, the logD in “physchem [2]” was found to be 1.73. The same molecule showed a Papp A→B at 2 h, 10 µM in the data set “in vitro [3]” of 16.2 ×10⁻⁶ cm/s. Besides, the efflux ratio in “in vitro [4]” turned out to be 1.78. The microsomal CLint at 2 h, 1 µM in the data set “in vitro [5]” turned out to be 5.6 µL/min/mg; in the data set “in vitro [6]”, 4.6 µL/min/mg.

These data come from ChEMBL document CHEMBL5365534, “Discovery of a Novel Ketohexokinase Inhibitor with Improved Drug Distribution in Target Tissue for the Treatment of Fructose Metabolic Disease” (J Med Chem, 2023).
